Results taken from ChEMBL document CHEMBL1201862, “PubChem BioAssay data set” (2004).
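In this assay, cells in 96-well plates receive the compound at five concentrations for 48 hours. Endpoints are linearly interpolated between the surrounding concentrations. GI50 = concentration required for 50% inhibition of growth.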 Active and inactive are the calls of the source. Rule as the data show it: active = GI50 up to about 1.1 µM and inactive = higher.

Key:
Assay in all cases: growth of human tumour cells (NCI), 48 h
OVCAR-5 = test system: OVCAR-5
UO-31 = test system: UO-31
LOX IMVI = test system: LOX IMVI
U-251 = test system: U-251
MDA-MB-231 = test system: MDA-MB-231
TK-10 = test system: TK-10
SF-539 = test system: SF-539
CCRF-CEM = test system: CCRF-CEM
SW-620 = test system: SW-620
A498 = test system: A498
MDA-N = test system: MDA-N
HCT-15 = test system: HCT-15
SK-MEL-28 = test system: SK-MEL-28
OVCAR-3 = test system: OVCAR-3
RXF 393 = test system: RXF 393
NCI-H460 = test system: NCI-H460
MCF7 = test system: MCF7
ACHN = test system: ACHN
PC-3 = test system: PC-3
MDA-MB-435 = test system: MDA-MB-435
HOP-62 = test system: HOP-62
Hs-578T = test system: Hs-578T
Malme-3M = test system: Malme-3M
DU-145 = test system: DU-145
UACC-257 = test system: UACC-257
SN12C = test system: SN12C
K562 = test system: K562
UACC-62 = test system: UACC-62
NCI-H23 = test system: NCI-H23
SK-MEL-5 = test system: SK-MEL-5
HL-60 = test system: HL-60
786-0 = test system: 786-0
SNB-75 = test system: SNB-75
M14 = test system: M14
SK-MEL-2 = test system: SK-MEL-2
SF-268 = test system: SF-268
A549 = test system: A549
SF-295 = test system: SF-295
SNB-19 = test system: SNB-19
KM12 = test system: KM12
HOP-92 = test system: HOP-92
RPMI-8226 = test system: RPMI-8226
COLO 205 = test system: COLO 205
HCC 2998 = test system: HCC 2998
MOLT-4 = test system: MOLT-4
SK-OV-3 = test system: SK-OV-3
CAKI-1 = test system: CAKI-1
NCI-H522 = test system: NCI-H522
T47D = test system: T47D
IGROV-1 = test system: IGROV-1
OVCAR-4 = test system: OVCAR-4
EKVX = test system: EKVX
HCT-116 = test system: HCT-116
OVCAR-8 = test system: OVCAR-8
NCI-H226 = test system: NCI-H226
NCI/ADR-RES = test system: NCI/ADR-RES
HT-29 = test system: HT-29
SR = test system: SR
BT-549 = test system: BT-549

Measured: GI50

CCOc1ccc(Nc2nc3c(s2)C(=O)c2ccccc2C3=O)cc1
inactive: OVCAR-5 21.6 µM | UO-31 14.4 µM | LOX IMVI 3.76 µM | U-251 7.64 µM | MDA-MB-231 2.33 µM | TK-10 20.8 µM | SF-539 10.4 µM | CCRF-CEM 7.82 µM | SW-620 3.21 µM | A498 15.8 µM | MDA-N 1.96 µM | SK-MEL-28 18.9 µM | OVCAR-3 3.04 µM | RXF 393 12.8 µM | NCI-H460 15 µM | MCF7 4.81 µM | ACHN 14.5 µM | PC-3 5.56 µM | MDA-MB-435 1.79 µM | HOP-62 17.7 µM | Hs-578T 12.1 µM | Malme-3M 2.77 µM | DU-145 14.2 µM | UACC-257 10.4 µM | SN12C 3.76 µM | K562 3.36 µM | UACC-62 2.24 µM | NCI-H23 8.13 µM | SK-MEL-5 2.27 µM | HL-60 3.19 µM | 786-0 14.2 µM | SNB-75 11.1 µM | M14 12.2 µM | SK-MEL-2 15.1 µM | SF-268 3.63 µM | A549 19.5 µM | SF-295 10.7 µM | SNB-19 15.7 µM | KM12 13.7 µM | HOP-92 12.3 µM | RPMI-8226 3.85 µM | COLO 205 19.8 µM | HCC 2998 17.1 µM | MOLT-4 5.08 µM | SK-OV-3 19.7 µM | CAKI-1 8.41 µM | NCI-H522 7.5 µM | T47D 13.6 µM | IGROV-1 11.9 µM | EKVX 20 µM | HCT-116 13.2 µM
active: OVCAR-4 0.787 µM
2.55 µM: HCT-15

CCCCCCCCNC(=S)N/C=C1\C(=O)Oc2ccccc2C1=O
12.2 µM: HCT-15
inactive: OVCAR-5 12.6 µM | LOX IMVI 7.05 µM | MDA-MB-231 15.9 µM | SF-539 17.6 µM | CCRF-CEM 11.1 µM | A498 16 µM | MDA-N 18.1 µM | SK-MEL-28 16.1 µM | OVCAR-3 12.6 µM | RXF 393 16 µM | NCI-H460 14.4 µM | ACHN 14.8 µM | PC-3 14.4 µM | HOP-62 13.5 µM | DU-145 19.2 µM | UACC-257 19.1 µM | SN12C 19.8 µM | OVCAR-8 19.5 µM | K562 16.3 µM | UACC-62 6.85 µM | NCI-H23 21.1 µM | SK-MEL-5 15.3 µM | SNB-75 14.2 µM | M14 19.3 µM | SK-MEL-2 22.5 µM | SF-268 10 µM | NCI-H226 23.8 µM | A549 17.2 µM | SF-295 14.1 µM | KM12 13.6 µM | COLO 205 15 µM | HCC 2998 11.4 µM | MOLT-4 12.4 µM | NCI/ADR-RES 19 µM | NCI-H522 7.19 µM | T47D 65.8 µM | OVCAR-4 13.2 µM | EKVX 28.2 µM | HCT-116 15.6 µM

Fc1cc(C2=Nn3c(COc4ccccc4Cl)nnc3S/C2=C\c2ccc(Cl)cc2)c(Cl)cc1Cl
3.72 µM: HCT-15
inactive: OVCAR-5 3.96 µM | UO-31 6.4 µM | LOX IMVI 3.92 µM | U-251 3.2 µM | MDA-MB-231 3.72 µM | TK-10 11.6 µM | SF-539 5.6 µM | CCRF-CEM 9.04 µM | SW-620 3.54 µM | A498 14.2 µM | MDA-N 2.23 µM | HT-29 3.18 µM | SK-MEL-28 3.54 µM | OVCAR-3 17.1 µM | RXF 393 9.89 µM | NCI-H460 3.38 µM | MCF7 5.14 µM | ACHN 4.66 µM | PC-3 12.3 µM | MDA-MB-435 2.26 µM | HOP-62 15.8 µM | Hs-578T 11.8 µM | DU-145 5.97 µM | UACC-257 21.8 µM | OVCAR-8 6.03 µM | K562 3.77 µM | NCI-H23 1.96 µM | SK-MEL-5 3.96 µM | HL-60 4.49 µM | 786-0 4.23 µM | M14 3.75 µM | SK-MEL-2 13.3 µM | SF-268 2.83 µM | NCI-H226 20.6 µM | SF-295 4.28 µM | KM12 3.21 µM | HOP-92 1.36 µM | RPMI-8226 3.08 µM | HCC 2998 3.6 µM | MOLT-4 5.97 µM | SK-OV-3 19.3 µM | NCI/ADR-RES 4.24 µM | CAKI-1 8.02 µM | NCI-H522 5.5 µM | T47D 13.6 µM | IGROV-1 3.8 µM | SR 4.39 µM | OVCAR-4 9.84 µM | EKVX 10.1 µM | HCT-116 2.74 µM

Cc1ncc([N+](=O)[O-])n1CCn1ccnc1[N+](=O)[O-]
> 100 µM: HCT-15
inactive: OVCAR-5 > 100 µM | U-251 > 100 µM | TK-10 15.7 µM | SF-539 > 100 µM | CCRF-CEM > 100 µM | SW-620 74.6 µM | A498 61.9 µM | HT-29 > 100 µM | SK-MEL-28 > 100 µM | OVCAR-3 > 100 µM | NCI-H460 > 100 µM | MCF7 > 100 µM | ACHN > 100 µM | PC-3 80.9 µM | HOP-62 > 100 µM | Hs-578T > 100 µM | Malme-3M 72.1 µM | UACC-257 > 100 µM | SN12C 61.7 µM | OVCAR-8 34.8 µM | K562 > 100 µM | NCI-H23 > 100 µM | SK-MEL-5 38.3 µM | HL-60 > 100 µM | 786-0 > 100 µM | SNB-75 > 100 µM | SK-MEL-2 58.6 µM | SF-268 > 100 µM | NCI-H226 > 100 µM | A549 54.2 µM | SF-295 > 100 µM | KM12 > 100 µM | RPMI-8226 > 100 µM | HCC 2998 > 100 µM | MOLT-4 > 100 µM | NCI-H522 > 100 µM | SR > 100 µM | EKVX 35.2 µM | HCT-116 > 100 µM

CC(=O)OCC1OC(O[C@@H]2C[C@H]3C(C)(C)[C@H](OC(C)=O)CC[C@]3(C)[C@H]3CC[C@@H]4[C@]5(CC[C@@]4(C)[C@@]32C)O[C@@H]([C@H](O)C(C)(C)O)C[C@@H]5C)C(O)C(O)C1O (stereo partly drawn)
inactive: U-251 6.05 µM | RXF 393 4.4 µM | CAKI-1 3.23 µM

CC(=O)c1cccc(Nc2nc3ccccc3c3occc23)c1
inactive: OVCAR-5 53.6 µM | LOX IMVI 46.2 µM | U-251 17.9 µM | MDA-MB-231 24.8 µM | TK-10 15 µM | SF-539 15.5 µM | CCRF-CEM > 100 µM | BT-549 15.2 µM | A498 9.98 µM | HT-29 6.22 µM | SK-MEL-28 27.3 µM | OVCAR-3 34.2 µM | RXF 393 10.8 µM | NCI-H460 20.5 µM | MCF7 25.1 µM | ACHN 14.3 µM | PC-3 31.3 µM | MDA-MB-435 33.3 µM | HOP-62 14 µM | Malme-3M 19.9 µM | DU-145 33.6 µM | UACC-257 > 100 µM | SN12C 13.2 µM | OVCAR-8 20.4 µM | K562 > 100 µM | NCI-H23 16.7 µM | SK-MEL-5 12.7 µM | HL-60 > 100 µM | 786-0 16.7 µM | SNB-75 22.7 µM | M14 35.2 µM | SF-268 22.2 µM | NCI-H226 2.03 µM | A549 13.5 µM | SF-295 16.2 µM | SNB-19 20.2 µM | KM12 49.7 µM | HOP-92 9.64 µM | RPMI-8226 > 100 µM | COLO 205 > 100 µM | HCC 2998 46.1 µM | MOLT-4 > 100 µM | SK-OV-3 17.8 µM | NCI/ADR-RES 23 µM | CAKI-1 32.8 µM | T47D 21 µM | SR 47 µM | OVCAR-4 16.2 µM | EKVX 22 µM | HCT-116 18.2 µM
36.4 µM: HCT-15
